Data: article PMC7587962, “Evaluation of Cytotoxicity and α-Glucosidase Inhibitory Activity of Amide and Polyamino-Derivatives of Lupane Triterpenoids” (Molecules, 2020)

Columns and labels:
SK-MEL-5 = experiment: NCI-60 SRB screen: melanoma SK-MEL-5; assay type: cell-based, human; details: SK-MEL-5
HOP-92 = experiment: NCI-60 SRB screen: non-small cell lung cancer HOP-92; assay type: cell-based, human; details: HOP-92
MCF7 = experiment: NCI-60 SRB screen: breast cancer MCF7; assay type: cell-based; details: Homo sapiens, 48 h, MCF7
SN12C = experiment: NCI-60 SRB screen: renal cancer SN12C; assay type: cell-based, human
RPMI-8226 = experiment: NCI-60 SRB screen: leukemia RPMI-8226; assay type: cell-based; details: Homo sapiens, 48 h, RPMI-8226
HCT-116 = experiment: NCI-60 SRB screen: colon cancer HCT-116; assay type: cell-based; details: Homo sapiens, 48 h, HCT-116
COLO 205 = experiment: NCI-60 SRB screen: colon cancer COLO 205; assay type: cell-based, human; details: COLO 205
UACC-257 = experiment: NCI-60 SRB screen: melanoma UACC-257; assay type: cell-based, human; details: UACC-257
HS 578T = experiment: NCI-60 SRB screen: breast cancer HS 578T; assay type: cell-based, human; details: HS 578T
Prostate cancer subpanel = experiment: NCI-60 screen, subpanel Prostate cancer
NCI-H460 = experiment: NCI-60 SRB screen: non-small cell lung cancer NCI-H460; assay type: cell-based; details: Homo sapiens, 48 h, NCI-H460
DU-145 = experiment: NCI-60 SRB screen: prostate cancer DU-145; assay type: cell-based, human; details: DU-145
MDA-MB-231/ATCC = experiment: NCI-60 SRB screen: breast cancer MDA-MB-231/ATCC; assay type: cell-based; details: Homo sapiens, 48 h
OVCAR-8 = experiment: NCI-60 SRB screen: ovarian cancer OVCAR-8; assay type: cell-based, human; details: OVCAR-8
OVCAR-5 = experiment: NCI-60 SRB screen: ovarian cancer OVCAR-5; assay type: cell-based, human; details: OVCAR-5
NCI/ADR-RES = experiment: NCI-60 SRB screen: ovarian cancer NCI/ADR-RES; assay type: cell-based, human
CCRF-CEM = experiment: NCI-60 SRB screen: leukemia CCRF-CEM; assay type: cell-based; details: Homo sapiens, 48 h
U251 = experiment: NCI-60 SRB screen: CNS cancer U251; assay type: cell-based; details: Homo sapiens, U251
CNS cancer subpanel = experiment: NCI-60 screen, subpanel CNS cancer
A498 = experiment: NCI-60 SRB screen: renal cancer A498; assay type: cell-based, human; details: A498
IGROV1 = experiment: NCI-60 SRB screen: ovarian cancer IGROV1; assay type: cell-based, human; details: IGROV1
[1] = test system: 60 human tumor cell lines; details: single dose 10 µM
Colon Cancer subpanel = experiment: NCI-60 screen, subpanel Colon Cancer
M14 = experiment: NCI-60 SRB screen: melanoma M14; assay type: cell-based, human; details: M14
TK-10 = experiment: NCI-60 SRB screen: renal cancer TK-10; assay type: cell-based, human; details: TK-10
RXF 393 = experiment: NCI-60 SRB screen: renal cancer RXF 393; assay type: cell-based, human; details: RXF 393
UACC-62 = experiment: NCI-60 SRB screen: melanoma UACC-62; assay type: cell-based, human; details: UACC-62
SR = experiment: NCI-60 SRB screen: leukemia SR; assay type: cell-based; details: Homo sapiens, 48 h
HL-60(TB) = experiment: NCI-60 SRB screen: leukemia HL-60(TB); assay type: cell-based; details: Homo sapiens, 48 h, HL-60(TB)
LOX IMVI = experiment: NCI-60 SRB screen: melanoma LOX IMVI; assay type: cell-based, human
MOLT-4 = experiment: NCI-60 SRB screen: leukemia MOLT-4; assay type: cell-based; details: Homo sapiens, 48 h, MOLT-4
SNB-75 = experiment: NCI-60 SRB screen: CNS cancer SNB-75; assay type: cell-based, human; details: SNB-75
ACHN = experiment: NCI-60 SRB screen: renal cancer ACHN; assay type: cell-based, human
MDA-MB-435 = experiment: NCI-60 SRB screen: melanoma MDA-MB-435; assay type: cell-based, human; details: MDA-MB-435
Breast cancer subpanel = experiment: NCI-60 screen, subpanel Breast cancer
OVCAR-3 = experiment: NCI-60 SRB screen: ovarian cancer OVCAR-3; assay type: cell-based, human; details: OVCAR-3
SF-295 = experiment: NCI-60 SRB screen: CNS cancer SF-295; assay type: cell-based, human; details: SF-295
[2] = Homo sapiens, five concentrations, 48 h, SRB, read-out: GI50
[3] = single dose 10 µM, read-out: Percentage Cell Growth
[4] = five concentrations, SRB, read-out: GI50

## CC(=O)OCC12CCC(C(C)C(N)=O)C1C1CCC3C4(C)CCC(OC(C)=O)C(C)(C)C4CCC3(C)C1(C)CC2 [Compound 4, 3β,28-Diacetyloxy-(20R)-29-amino-29-oxolupane]
SK-MEL-5; [2]
  GI50: 3.8 µM
SK-MEL-5; single dose 10 µM
  Percentage Cell Growth: −71.94%
HOP-92; single dose 10 µM
  Percentage Cell Growth: −83.15%
HOP-92; [2]
  GI50: 5.21 µM
MCF7; [3]
  activity at 10 µM: -45.6%
MCF7; [4]
  GI50: 3.27 µM
SN12C; [2]
  GI50: 5.65 µM
SN12C; single dose 10 µM
  Percentage Cell Growth: −91.61%
RPMI-8226; [3]
  activity at 10 µM: -18.3%
RPMI-8226; [4]
  GI50: 2.63 µM
HCT-116; [3]
  activity at 10 µM: -84.2%
HCT-116; [4]
  GI50: 3.57 µM
COLO 205; single dose 10 µM
  Percentage Cell Growth: −52.98%
COLO 205; [2]
  GI50: 4.31 µM
UACC-257; [2]
  GI50: 4.83 µM
UACC-257; single dose 10 µM
  Percentage Cell Growth: −46.24%
HS 578T; single dose 10 µM
  Percentage Cell Growth: −32.99%
HS 578T; [2]
  GI50: 12.4 µM
Prostate cancer subpanel
  MID b, average sensitivity of all cell line of particular subpanel: 6.31 µM
  Selectivity, ratio MID a: MID b: 1.25
NCI-H460; [3]
  activity at 10 µM: -61.8%
NCI-H460; [4]
  GI50: 13.4 µM
DU-145; single dose 10 µM
  Percentage Cell Growth: −69.87%
DU-145; [2]
  GI50: 9.94 µM
MDA-MB-231/ATCC; MDA-MB-231/ATCC, single dose 10 µM, read-out: Percentage Cell Growth
  activity at 10 µM: -88.6%
MDA-MB-231/ATCC; MDA-MB-231, MDA-MB-31/ATCC, five concentrations, SRB, read-out: GI50
  GI50: 11.8 µM
OVCAR-8; [2]
  GI50: 54.4 µM
OVCAR-8; single dose 10 µM
  Percentage Cell Growth: −31.70%
OVCAR-5; [2]
  GI50: 14.4 µM
OVCAR-5; single dose 10 µM
  Percentage Cell Growth: −77.37%
NCI/ADR-RES; [2]
  GI50: 7.74 µM
NCI/ADR-RES; single dose 10 µM
  Percentage Cell Growth: −57.29%
CCRF-CEM; [3]
  activity at 10 µM: -12.4%
CCRF-CEM; [4]
  GI50: 5.19 µM
U251; U-251, 48 h, single dose 10 µM, read-out: Percentage Cell Growth
  activity at 10 µM: -51.4%
U251; U-251, five concentrations, 48 h, SRB, read-out: GI50
  GI50: 5.1 µM
CNS cancer subpanel
  MID b, average sensitivity of all cell line of particular subpanel: 7.27 µM
  Selectivity, ratio MID a: MID b: 1.08
A498; single dose 10 µM
  Percentage Cell Growth: −81.70%
A498; [2]
  GI50: 12.8 µM
IGROV1; Homo sapiens, IGROV-1, five concentrations, 48 h, SRB, read-out: GI50
  GI50: 13.2 µM
IGROV1; single dose 10 µM
  Percentage Cell Growth: −71.25%
[1]; cell lines with negative growth
  cancer cell lethality, range of percentage growth: −8.82% to −97.54%
[1]; number of cell lines
  cases of cancer cell lethality: 57
Colon Cancer subpanel
  MID b, average sensitivity of all cell line of particular subpanel: 5.37 µM
  Selectivity, ratio MID a: MID b: 1.47
M14; [2]
  GI50: 7.38 µM
M14; single dose 10 µM
  Percentage Cell Growth: −44.25%
TK-10; [2]
  GI50: 14.7 µM
TK-10; single dose 10 µM
  Percentage Cell Growth: −35.40%
RXF 393; [2]
  GI50: 4.28 µM
RXF 393; single dose 10 µM
  Percentage Cell Growth: −64.94%
UACC-62; [2]
  GI50: 5.46 µM
UACC-62; single dose 10 µM
  Percentage Cell Growth: −82.97%
SR; [3]
  activity at 10 µM: 10.8%
SR; [4]
  GI50: 3.32 µM
HL-60(TB); [3]
  activity at 10 µM: -23.1%
HL-60(TB); [4]
  GI50: 2.76 µM
LOX IMVI; [2]
  GI50: 10.2 µM
LOX IMVI; single dose 10 µM
  Percentage Cell Growth: −85.52%
MOLT-4; [3]
  activity at 10 µM: -29.1%
MOLT-4; [4]
  GI50: 3.29 µM
SNB-75; [2]
  GI50: 5.59 µM
SNB-75; single dose 10 µM
  Percentage Cell Growth: −47.83%
ACHN; [2]
  GI50: 5.78 µM
ACHN; single dose 10 µM
  Percentage Cell Growth: −75.68%
MDA-MB-435; [2]
  GI50: 5.23 µM
MDA-MB-435; single dose 10 µM
  Percentage Cell Growth: −63.78%
Breast cancer subpanel
  MID b, average sensitivity of all cell line of particular subpanel: 7.09 µM
  Selectivity, ratio MID a: MID b: 1.11
OVCAR-3; [2]
  GI50: 3.95 µM
OVCAR-3; single dose 10 µM
  Percentage Cell Growth: −76.19%
SF-295; [2]
  GI50: 8.57 µM
SF-295; single dose 10 µM
  Percentage Cell Growth: −50.75%
